Measured values as given in patent US7618967B2, “Indane compounds” (H. Lundbeck A/S, priority 2006, dated 2009).

target: NAT Noradrenergic Transporter (Rattus norvegicus, UniProt Q9WTR4); assay: Measurements of [3H]noradrenaline uptake into rat cortical synaptosomes; format: biochemical
Description: Transporter Inhibition Assays
Measurements of [^3H]Noradrenaline Uptake into Rat Cortical Synaptosomes
The homogenate is centrifuged at 1000×g for 10 min at 4° C. The pellet is discarded and the supernatant is centrifuged at 40.000×g for 20 min. […] Pellet is suspended in 140 volumes of assaybuffer. Tissue is mixed with test compounds and after 10 min pre-incubation, 10 nM [^3H]-noradrenaline is added to a final volume of 0.2 ml and the mixture is incubated for 15 min at 37° C. After 15 min incubation, samples are filtered directly on Unifilter GF/C glass fiber filters (soaked for 30 min in 0.1% polyethylenimine) under vacuum and immediately washed with 1×0.2 mL assay buffer.
Non-specific uptake is determined using talsupram (10 μM final concentration). Duloxetine is included as reference in all experiments as dose-response curve.

Chain of NAT Noradrenergic Transporter (Q9WTR4 6-550 limits assumed): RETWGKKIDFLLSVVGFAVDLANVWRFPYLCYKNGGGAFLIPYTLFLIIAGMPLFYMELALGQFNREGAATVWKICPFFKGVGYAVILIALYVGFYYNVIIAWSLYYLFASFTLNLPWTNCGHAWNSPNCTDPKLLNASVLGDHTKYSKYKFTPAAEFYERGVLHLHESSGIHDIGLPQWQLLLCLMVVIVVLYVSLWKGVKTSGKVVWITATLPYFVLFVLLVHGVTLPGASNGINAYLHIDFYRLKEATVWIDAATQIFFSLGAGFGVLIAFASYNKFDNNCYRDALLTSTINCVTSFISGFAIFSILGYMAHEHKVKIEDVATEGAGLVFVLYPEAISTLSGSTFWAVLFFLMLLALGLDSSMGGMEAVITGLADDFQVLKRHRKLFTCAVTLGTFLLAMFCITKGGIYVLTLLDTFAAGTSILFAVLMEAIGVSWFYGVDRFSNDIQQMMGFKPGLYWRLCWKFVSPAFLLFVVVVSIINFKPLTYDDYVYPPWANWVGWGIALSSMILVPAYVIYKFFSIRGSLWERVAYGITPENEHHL

IC50, 0.1 to 200 nM:
CN[C@@H]1C[C@@H](c2c[nH]c3cc(OC)ccc23)c2ccccc21 [Formula X]
CN[C@@H]1C[C@@H](c2c[nH]c3ccc(Cl)cc23)c2ccccc21 [Formula VIII]
CN[C@@H]1C[C@@H](c2c[nH]c3ccccc23)c2ccccc21 [Formula IX]
